Several values for one entry are separate records, joined by “and”; a condition that tells them apart may be missing. Equal values may be shown once.
Settings: Liquid

OCC(O)CO [glycerol]
Settings | vapor or sublimation pressure
303.59 K, static (had to override TRC unc) | 4.15e-05 kPa
303.61 K, static (had to override TRC unc) | 4.19e-05 kPa
304.56 K, static (had to override TRC unc) | 4.68e-05 kPa
306.03 K, static (had to override TRC unc) | 5.56e-05 kPa
308.43 K, static (had to override TRC unc) | 7.28e-05 kPa
310.89 K, static (had to override TRC unc) | 9.63e-05 kPa
313.29 K, static (had to override TRC unc) | 0.000125 kPa
315.71 K, static (had to override TRC unc) | 0.0001634 kPa
318.12 K, static (had to override TRC unc) | 0.0002107 kPa
320.57 K, static (had to override TRC unc) | 0.0002701 kPa
322.95 K, static (had to override TRC unc) | 0.0003472 kPa
325.42 K, static (had to override TRC unc) | 0.0004428 kPa
327.82 K, static (had to override TRC unc) | 0.0005644 kPa
330.3 K, static (had to override TRC unc) | 0.0007165 kPa
332.72 K, static (had to override TRC unc) | 0.0009037 kPa
335.14 K, static (had to override TRC unc) | 0.001132 kPa
338.2 K, transpiration (had to override TRC unc) | 0.00151 kPa
338.25 K, static (had to override TRC unc) | 0.001502 kPa
340.68 K, static (had to override TRC unc) | 0.001872 kPa
341.7 K, transpiration (had to override TRC unc) | 0.0021 kPa
343.08 K, static (had to override TRC unc) | 0.00232 kPa
345.51 K, static (had to override TRC unc) | 0.002876 kPa
347.7 K, transpiration (had to override TRC unc) | 0.00355 kPa
347.91 K, static (had to override TRC unc) | 0.003529 kPa
350.34 K, static (had to override TRC unc) | 0.00436 kPa
351.5 K, transpiration (had to override TRC unc) | 0.00503 kPa
352.57 K, static (had to override TRC unc) | 0.00526 kPa
352.58 K, static (had to override TRC unc) | 0.00527 kPa
352.6 K, static (had to override TRC unc) | 0.00528 kPa
352.73 K, static (had to override TRC unc) | 0.005318 kPa
354.5 K, transpiration (had to override TRC unc) | 0.00631 kPa
354.98 K, static (had to override TRC unc) | 0.00639 kPa
354.99 K, static (had to override TRC unc) | 0.00641 kPa
355.18 K, static (had to override TRC unc) | 0.006488 kPa
357.39 K, static (had to override TRC unc) | 0.00777 kPa
357.42 K, static (had to override TRC unc) | 0.00782 kPa
357.5 K, transpiration (had to override TRC unc) | 0.00831 kPa
357.57 K, static (had to override TRC unc) | 0.007863 kPa
359.8 K, static (had to override TRC unc) | 0.00938 kPa
359.82 K, static (had to override TRC unc) | 0.00939 kPa
360.01 K, static (had to override TRC unc) | 0.009523 kPa
360.1 K, transpiration (had to override TRC unc) | 0.00989 kPa
362.42 K, static (had to override TRC unc) | 0.01146 kPa
362.63 K, static (had to override TRC unc) | 0.0117 kPa
362.66 K, static (had to override TRC unc) | 0.01179 kPa
363.2 K, transpiration (had to override TRC unc) | 0.01274 kPa
364.82 K, static (had to override TRC unc) | 0.0138 kPa
365.07 K, static (had to override TRC unc) | 0.0141 kPa
365.08 K, static (had to override TRC unc) | 0.01409 kPa
365.9 K, transpiration (had to override TRC unc) | 0.01529 kPa
367.45 K, static (had to override TRC unc) | 0.01686 kPa
367.48 K, static (had to override TRC unc) | 0.01696 kPa
369.89 K, static (had to override TRC unc) | 0.0202 kPa
369.91 K, static (had to override TRC unc) | 0.02016 kPa
370.3 K, transpiration (had to override TRC unc) | 0.0208 kPa
372.27 K, static (had to override TRC unc) | 0.024 kPa
372.29 K, static (had to override TRC unc) | 0.02415 kPa
374.7 K, static (had to override TRC unc) | 0.0286 kPa
374.73 K, static (had to override TRC unc) | 0.0286 kPa
377.08 K, static (had to override TRC unc) | 0.03379 kPa
377.11 K, static (had to override TRC unc) | 0.03408 kPa
377.77 K, static (had to override TRC unc) | 0.03569 kPa
380.17 K, static (had to override TRC unc) | 0.04186 kPa
380.19 K, static (had to override TRC unc) | 0.04192 kPa
382.55 K, static (had to override TRC unc) | 0.04942 kPa
382.59 K, static (had to override TRC unc) | 0.04972 kPa and 0.0496 kPa
384.99 K, static (had to override TRC unc) | 0.0582 kPa
385.01 K, static (had to override TRC unc) | 0.05821 kPa
387.37 K, static (had to override TRC unc) | 0.06807 kPa
387.39 K, static (had to override TRC unc) | 0.06861 kPa
389.8 K, static (had to override TRC unc) | 0.07986 kPa
389.83 K, static (had to override TRC unc) | 0.07998 kPa
392.18 K, static (had to override TRC unc) | 0.09311 kPa
392.2 K, static (had to override TRC unc) | 0.09367 kPa
394.61 K, static (had to override TRC unc) | 0.1087 kPa
394.64 K, static (had to override TRC unc) | 0.1087 kPa
397 K, static (had to override TRC unc) | 0.1258 kPa
397.02 K, static (had to override TRC unc) | 0.1266 kPa
399.42 K, static (had to override TRC unc) | 0.1462 kPa
399.45 K, static (had to override TRC unc) | 0.1464 kPa
401.81 K, static (had to override TRC unc) | 0.1688 kPa and 0.1687 kPa
401.83 K, static (had to override TRC unc) | 0.1694 kPa
404.23 K, static (had to override TRC unc) | 0.1952 kPa
404.26 K, static (had to override TRC unc) | 0.1952 kPa
406.62 K, static (had to override TRC unc) | 0.2242 kPa and 0.224 kPa
406.64 K, static (had to override TRC unc) | 0.2251 kPa
409.68 K, static (had to override TRC unc) | 0.2687 kPa
409.69 K, static (had to override TRC unc) | 0.269 kPa
412.08 K, static (had to override TRC unc) | 0.308 kPa
412.11 K, static (had to override TRC unc) | 0.3089 kPa
414.48 K, static (had to override TRC unc) | 0.3526 kPa
414.49 K, static (had to override TRC unc) | 0.3526 kPa
416.89 K, static (had to override TRC unc) | 0.4023 kPa
416.92 K, static (had to override TRC unc) | 0.4033 kPa
419.3 K, static (had to override TRC unc) | 0.4585 kPa and 0.4583 kPa
421.7 K, static (had to override TRC unc) | 0.521 kPa
421.73 K, static (had to override TRC unc) | 0.5224 kPa
424.1 K, static (had to override TRC unc) | 0.5919 kPa
424.11 K, static (had to override TRC unc) | 0.5923 kPa
426.5 K, static (had to override TRC unc) | 0.6698 kPa
426.53 K, static (had to override TRC unc) | 0.6725 kPa
428.91 K, static (had to override TRC unc) | 0.7586 kPa and 0.7584 kPa
431.31 K, static (had to override TRC unc) | 0.8565 kPa
431.34 K, static (had to override TRC unc) | 0.8583 kPa
433.72 K, static (had to override TRC unc) | 0.9653 kPa
433.73 K, static (had to override TRC unc) | 0.9671 kPa
436.11 K, static (had to override TRC unc) | 1.086 kPa
436.13 K, static (had to override TRC unc) | 1.087 kPa
